Assay results taken from patent US8022043B2, “Ceramide derivatives as modulators of immunity and autoimmunity” (Albert Einstein College of Medicine of Yeshiva University, priority 2004, dated 2011).

Assays:
Format in all cases: cell-based
[1] = system: Bulk splenocytes from C57BL/6 mice; assay: Cytokine response of splenocyte cultures (IL-4 and IFNγ ELISA); details: 500 nM glycolipid, 48 hours; for Cytokine Response IFNγ / Cytokine Response IL-4: culture supernatant ELISA, ND = below the reliable level for detection
Protocol: The cytokine response reported in Table 1 and FIG. 5C was determined by the following procedure: Bulk splenocytes from C57BL/6 mice were plated at 300,000 per well in 96-well flat-bottom tissue culture plates with ceramide-like glycolipids diluted to a concentration of 500 nM in 200 microliters complete medium. After 48 h at 37° C., 150 microliters of supernatant was removed for cytokine measurements. Supernatant levels of IL-4, and IFNγ were measured by standard enzyme-linked immunosorbent assay (ELISA), using capture and biotinylated detection antibody pairs (clones 11B11/BVD6-24G2-biotin, and R4-6A2/XMG1.2-biotin, respectively, from BD Pharmingen, San Diego, Calif.). […] Standards for IL-4 and IFNγ were from Peprotech (Rocky Hill, N.J.).

[2] = system: Bulk splenocytes from C57BL/6 mice; assay: Splenocyte proliferation assay (3H-thymidine incorporation); details: concentration giving 50% maximal response in proliferation of splenocyte cultures, 3H-thymidine incorporation
Protocol: The results were obtained using a splenocyte proliferation assay according to the following procedure: Bulk splenocytes from C57BL/6 mice were plated at 300,000 per well in 96-well flat-bottom tissue culture plates with the indicated ceramide-like glycolipid diluted in complete medium to the concentrations shown. After 48 h at 37° C., the plate wells were pulsed with 20 microliters of medium containing 50 microCi/ml ^3H-thymidine and incubated for a further 18 h. Cell proliferation was estimated by harvesting pulsed cells onto 96-well filtermats and scintillation counting on a 1450 Microbeta Trilux instrument (Wallac/Perkin Elmer, Boston, Mass.).

NK T cells = assay: NK T cell activation screens (Example, FIG. 5 and Table 1); details: see Example
Excerpt: Using these methods, we produced more than 60 novel amino substituted analogues of KRN7000. These were screened in a functional assay that assessed the ability of the compounds to activate NK T cell hybridomas in the presence of various types of cells expressing CD1d, or in the presence of recombinant CD1d proteins bound to the tissue culture plate surface (FIG. 5).

iNKT cells = assay: In vitro cytokine modulation, murine cell assay system; details: for in vitro activity at modulating cytokines: murine cell assay system; for IFNγ induction: DB03-3: in some murine strains
Excerpt: The term iNKT cells, as used herein, mean the specific subset of CD1d-dependent T cells that expresses the invariant TCRα chain rearrangement consisting of Vα14-Jα18 in mice, and Vα24-Jα18 in humans. These cells are uniformly reactive to α-galactosylceramides presented by CD1d. These cells are also referred to as “Type 1” NKT cells, and the distinction between the different types of NKT cells and the nomenclature relating to this are summarized in the publication by Godfrey et al., Nat Rev Immunol. 2004 March; 4(3):231-7. Methods for determining cytokine production by iNKT cells in response to CD1d-presented glycolipids for determination of strong or weak agonist activity are described in Yu K O A, Im J S, Molano A, Dutronc Y, Illarionov P A, Forestier C, Fujiwara N, Arias I, Miyake S, Yamamura T, Chang Y-T, Besra G S, Porcelli S A, Modulation of CD1d-restricted NKT cell responses using N-acyl variants of α-galactosylceramides, Proc. Nat. Acad. Sci. (USA), 102:3383-8 (2005), see also Godfrey D I et al., Nat Rev Immunol. 2004 March; 4(3):231-7.

SMILES | IL-4/IFNγ ratio divided by this ratio for DB01-1 (value in parentheses) [1] | ratio IL-4/IFNγ [1] | Cytokine Response IFNγ [1] [ng/mL] | Cytokine Response IL-4 [1] [ng/mL] | EC50 [2] [nM] | effectiveness of compound (NK T cells) | in vitro activity at modulating cytokines (iNKT cells) | IL-4 induction (iNKT cells; in vitro) | IFNγ induction (iNKT cells; in vitro) | IL-2 induction (iNKT cells; in vitro)
CCCCCCCCCCCCCC[C@@H](O)[C@@H](O)[C@H](CO[C@H]1O[C@H](CO)[C@H](O)[C@H](O)[C@H]1O)NC(=O)Cc1c(F)cccc1Cl [YTCO3-49] | 1.1 | 0.028 | 4.57 | 0.13 | 57.1 |  |  |  |  | 
CCCCCCCCCCCCCCC(O)C(O)C(COC1OC(CO)C(O)C(O)C1O)NC(=O)Cc1ccccc1Cl (centres unmarked) [YTCO3-45] | 1.6 | 0.041 | 15.26 | 0.63 | 222 |  |  |  |  | 
CCCCCCCCCCCCCC[C@@H](O)[C@@H](O)[C@H](CO[C@H]1O[C@H](CO)[C@H](O)[C@H](O)[C@H]1O)NC(=O)C(OC)c1ccccc1 (some centres unmarked) [YTCO3-48] | 0.6 | 0.016 | 12.56 | 0.20 | 86.9 |  |  |  |  | 
CCCCCCCCCCCCCC[C@@H](O)[C@@H](O)[C@H](CO[C@H]1O[C@H](CO)[C@H](O)[C@H](O)[C@H]1O)NC(=O)[C@H](Cc1ccccc1)NC(=O)OC(C)(C)C [YTCO3-57] |  |  |  |  | 2190 |  |  |  |  | 
CCCCCCCCCCCCCC[C@@H](O)[C@@H](O)[C@H](CO[C@H]1O[C@H](CO)[C@H](O)[C@H](O)[C@H]1O)NC(=O)Cc1ccc(Br)cc1 [YTCO3-47] | 0.4 | 0.011 | 19.63 | 0.21 | 7.5 | Particularly effective |  |  |  | 
CCCCCCCCCCCCCCC(O)C(O)C(COC1OC(CO)C(O)C(O)C1O)NC(=O)C=Cc1ccccc1 (centres unmarked) [YTCO3-42] |  |  |  |  | > 2500 |  |  |  |  | 
CCCCCCCCCCCCCC[C@@H](O)[C@@H](O)[C@H](CO[C@H]1O[C@H](CO)[C@H](O)[C@H](O)[C@H]1O)NC(=O)C1(c2ccccc2)CCCC1 [YTCO3-46] | 1.0 | 0.026 | 8.52 | 0.22 | 4.8 | Particularly effective |  |  |  | 
CCCCCCCCCCCCCCC(O)C(O)C(COC1OC(CO)C(O)C(O)C1O)NC(=O)Cc1ccccc1OC (centres unmarked) [YTCO3-43] | 0.7 | 0.018 | 19.50 | 0.35 | 86.9 |  |  |  |  | 
CCCCCCCCCCCCCC[C@@H](O)[C@@H](O)[C@H](CO[C@H]1O[C@H](CO)[C@H](O)[C@H](O)[C@H]1O)NC(=O)C(c1ccccc1)C(C)CC (some centres unmarked) [YTCO3-60] | 0.8 | 0.022 | 8.18 | 0.18 | 10.9 | Particularly effective |  |  |  | 
CCCCCCCCCCCCCC[C@@H](O)[C@@H](O)[C@H](CO[C@H]1O[C@H](CO)[C@H](O)[C@H](O)[C@H]1O)NC(=O)Cc1cccc2ccccc12 [YTCO3-56] | 0.7 | 0.019 | 11.79 | 0.22 | 11.4 | Particularly effective |  |  |  | 
CCCCCCCCCCCCCCC(O)C(O)C(COC1OC(CO)C(O)C(O)C1O)NC(=O)CCCCCCCCCCC (centres unmarked) [YTC03-35] |  |  |  |  |  | Particularly effective |  |  |  | 
CCCCCCCCCCCCCC[C@@H](O)[C@@H](O)[C@H](COC1OC(CO)C(O)C(O)C1O)NC(=O)Cc1ccc(OC)cc1 (some centres unmarked) [YTC03-33] |  |  |  |  |  | Particularly effective |  |  |  | 
CCCCCCCCCCCCCC[C@@H](O)[C@@H](O)[C@H](CO[C@H]1O[C@H](CO)[C@H](O)[C@H](O)[C@H]1O)NC(=O)c1ccc(OCCCCCCC)cc1 [YTCO3-53] | 1.2 | 0.030 | 0.67 | 0.02 | 38 |  |  |  |  | 
CCCCCCCCCCCCCC[C@@H](O)[C@@H](O)[C@H](CO[C@H]1O[C@H](CO)[C@H](O)[C@H](O)[C@H]1O)N=[N+]=[N-] [DB03-7] |  |  |  |  |  |  | show in vitro activity |  |  | 
CCCCCCCC/C=C\CCCCCCCCCC(=O)N[C@@H](COC1OC(CO)C(O)C(O)C1O)[C@H](O)[C@H](O)CCCCCCCCCCCCCC (some centres unmarked) [DB03-3] |  |  |  |  |  |  | show in vitro activity | good inducer of L-4 | strong inducer of IFNγ | 
CCCCCCCCCCCCCC[C@@H](O)[C@@H](O)[C@H](CO[C@H]1O[C@H](CO)[C@H](O)[C@H](O)[C@H]1O)NC(=O)C(CC)c1ccccc1 (some centres unmarked) [YTCO3-61] | 0.9 | 0.023 | 7.50 | 0.17 | 72.4 |  |  |  |  | 
CCCCCCCCCCCCCC[C@@H](O)[C@@H](O)[C@H](CO[C@H]1O[C@H](CO)[C@H](O)[C@H](O)[C@H]1O)NC(=O)C(c1ccccc1)C1CCCC1 (some centres unmarked) [YTCO3-50] | 0.3 | 0.007 | 9.47 | 0.07 | 5.4 | Particularly effective |  |  |  | 
CCCCCCCCCCCCCC[C@@H](O)[C@@H](O)[C@H](CO[C@H]1O[C@H](CO)[C@H](O)[C@H](O)[C@H]1O)NC(=O)C(C)(c1ccccc1)c1ccccc1 [YTCO3-58] | 0.9 | 0.024 | 8.64 | 0.21 | 51.8 |  |  |  |  | 
CCCCCCCCCCCCCC[C@@H](O)[C@@H](O)[C@H](CO[C@H]1O[C@H](CO)[C@H](O)[C@H](O)[C@H]1O)NC(=O)Cc1cc(OC)ccc1OC [YTCO3-54] | 0.4 | 0.011 | 10.39 | 0.11 | 17.2 |  |  |  |  | 
CCCCCCCCCCCCCC[C@@H](O)[C@@H](O)[C@H](CO[C@H]1O[C@H](CO)[C@H](O)[C@H](O)[C@H]1O)NC(=O)Cc1ccc(C)cc1 [YTCO3-51] | 0.2 | 0.006 | 9.03 | 0.05 | 63.8 |  |  |  |  | 
CCCCCCCCCCCCCCC(O)C(O)C(COC1OC(CO)C(O)C(O)C1O)NC(=O)CCCCC (centres unmarked) [YTC03-31] |  |  |  |  |  | Particularly effective |  |  |  | 
CCCCCCCCCCCCCC[C@@H](O)[C@@H](O)[C@H](CO[C@H]1O[C@H](CO)[C@H](O)[C@H](O)[C@H]1O)NC(=O)Cc1cccc(C)c1 [YTCO3-52] | 0.7 | 0.019 | 10.25 | 0.19 | 17 |  |  |  |  | 
CCCCC/C=C\C/C=C\CCCCCCCC(=O)N[C@@H](COC1OC(CO)C(O)C(O)C1O)[C@H](O)[C@H](O)CCCCCCCCCCCCCC (some centres unmarked) [DB03-10] |  |  |  |  |  |  | show in vitro activity | strong inducers of IL-4 | moderate inducers of IFNγ | weak inducers of IL-2
CCCCCCCCCCCCCC[C@@H](O)[C@@H](O)[C@H](CO[C@H]1O[C@H](CO)[C@H](O)[C@H](O)[C@H]1O)NC(=O)Cc1ccc(OCC)cc1 [YTCO3-59] | 309.4 | 8.045 | 0.22 | 1.77 | 0.1 | Particularly effective |  |  |  | 
CCCCCCCCCCCCCCC(O)C(O)C(COC1OC(CO)C(O)C(O)C1O)NC(=O)Cc1ccc2c(c1)OCO2 (centres unmarked) [YTCO3-44] | 3.7 | 0.097 | 14.19 | 1.38 | 57.1 |  |  |  |  | 
